Experimental data: patent EP1095657A2, “Compositions for the regulation of cytokine activity” (priority 1992, dated 1994)

Assays:
ELAM-1 = test: TNF-α-induced expression of adhesion molecules by endothelial cells (ELISA); conditions: for Recombinant human TNFα-induced adhesion molecules (O.D 492): 1 h pretreatment of EC, TNFα alone 1.2±0.1
[1] = system: mortality after gamma irradiation; test: Radioprotective effect in gamma-irradiated mice; assay type: in vivo, BALB/c mice
Protocol: Groups of female BALB/c mice, 8 weeks old, 5-10 mice per group, were injected subcutaneously with either saline (0.1 ml, control), H-9392 (30 ng/mouse), or glucosamine (10,000 ng/mouse) 1 day before irradiation, and weekly thereafter until termination of the experiment on day 30. All the mice were irradiated to a dose of 700 rads using a ^60Co gamma radiation source.
In a separate experiment, groups of BALB/c mice (5 mice to a group) were likewise exposed to 750 rads of gamma-rays, except that these groups of mice were treated with test substances (saline at 0.1 ml per mouse; H-9392 at 0.3, 3, 30 and 300 ng/mouse; and glucosamine at 1, 10 and 100 µg/mouse) on the day before irradiation, on the sixth day after irradiation, and once again on the thirteenth day after irradiation only. All treatment ceased after the third and last administration.

In the case of `O=C(O)C1=C[C@H](O)[C@@H](OS(=O)(=O)O)[C@H](O[C@H]2[C@H](O)[C@@H](NS(=O)(=O)O)C(O)O[C@@H]2CO)O1` (stereo partly drawn) [H-9392, 2-O-sulfate-4-deoxy-4-en-iduronic acid-(α-1,4)-2-deoxy-2-N-sulfateglucosamine], the “Recombinant human TNFα-induced adhesion molecules (O.D 492)” value (ELAM-1; 50 pg/ml, no TNFα 0.12±0.01) is reported as 0.6±0.1 O.D 492, the “Recombinant human TNFα-induced adhesion molecules (O.D 492)” value (ELAM-1; 100 pg/ml) is reported as 0.9±0.07 O.D 492 and the “inhibition of the up regulation of EC expression of adhesion molecules induced by TNF-α” value (ELAM-1; ELAM-1 and ICAM-1 not told apart in the sentence) is reported as “up to 50%”. For the same molecule, the mortality rate ([1]; 700 rads, by day 30, s.c. 1 day before irradiation and weekly, H-9392 30 ng/mouse, glucosamine 10,000 ng/mouse, saline 100%) was 40%, the “mice that had died by the thirtieth day after irradiation” value ([1]; 750 rads, 30 ng/mouse, three administrations, 5 mice to a group) was “only one mouse” and the “activity in suppressing mortality after irradiation, in words” value ([1]; 750 rads, three administrations, 300 ng H-9392, 1 µg glucosamine) was “moderate activity in suppressing mortality”.
